Source: US7122555B2, “Pyrido [2,1-a] isoquinoline derivatives” (Hoffmann-la Roche Inc., priority 2003, dated 2006)

The compounds below were run against human DPP-IV (Homo sapiens, UniProt P27487) (assay: DPP-IV activity assay (fluorogenic or colorimetric substrate), IC50 determination).
human DPP-IV, sequence (P27487 31-766): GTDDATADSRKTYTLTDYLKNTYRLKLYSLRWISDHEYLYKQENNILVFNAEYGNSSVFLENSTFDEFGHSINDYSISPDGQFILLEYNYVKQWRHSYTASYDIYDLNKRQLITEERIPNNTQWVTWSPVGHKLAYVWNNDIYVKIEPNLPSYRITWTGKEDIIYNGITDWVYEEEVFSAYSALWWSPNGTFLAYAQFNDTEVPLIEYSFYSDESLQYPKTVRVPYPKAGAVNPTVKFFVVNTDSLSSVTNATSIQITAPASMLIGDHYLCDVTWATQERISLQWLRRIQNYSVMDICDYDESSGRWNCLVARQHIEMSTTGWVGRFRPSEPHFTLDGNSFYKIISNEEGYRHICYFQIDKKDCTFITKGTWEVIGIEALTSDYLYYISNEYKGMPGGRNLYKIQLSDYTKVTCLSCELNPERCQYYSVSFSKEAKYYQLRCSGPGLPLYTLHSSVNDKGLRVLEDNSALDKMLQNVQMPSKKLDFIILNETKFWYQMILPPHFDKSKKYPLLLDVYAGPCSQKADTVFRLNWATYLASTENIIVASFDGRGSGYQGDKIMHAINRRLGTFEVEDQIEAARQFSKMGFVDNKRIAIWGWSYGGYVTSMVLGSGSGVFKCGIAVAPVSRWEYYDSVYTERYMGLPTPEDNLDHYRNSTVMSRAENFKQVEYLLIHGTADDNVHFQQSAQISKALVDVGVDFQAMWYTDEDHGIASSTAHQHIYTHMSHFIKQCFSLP
Experimental: Activity of DPP-IV inhibitors are tested with natural human DPP-IV derived from a human plasma pool or with recombinat human DPP-IV. Human citrate plasma from different donors is pooled, filterted through a 0.2 micron membrane under sterile conditions and aliquots of 1 ml are shock frozen and stored at −120° C. until used. In the colorimetric DPP-IV assay 5 to 10 μl human plasma and in the fluorometric assay 1.0 μl of human plasma in a total assay volume of 100 μl is used as an enzyme source. […] In the calorimetric DPP-IV assay 20 ng rec.-h DPP-IV and in the fluorometric assay 2 ng rec-h DPP-IV in a total assay volume of 100 μl is used as an enzyme source.
Initial rate constants are calculated by best fit linear regression.
The absorption of pNA liberated from the colorimetric substrate is detected in a Packard SpectraCount at 405 nm continuosly every 2 minutes for 30 to 120 minutes. Initial rate constants are calculated by best fit linear regression.
DPP-IV activity assays are performed in 96 well plates at 37° C. in a total assay volume of 100 μl. The assay buffer consists of 50 mM Tris/HCl pH 7.8 containing 0.1 mg/ml BSA and 100 mM NaCl. Test compounds are solved in 100% DMSO, diluted to the desired concentration in 10% DMSO/H2O. The final DMSO concentration in the assay is 1% (v/v). At this concentration enzyme inactivation by DMSO is <5%. Compounds are with (10 minutes at 37° C.) and without preincubation with the enzyme. Enzyme reactions are started with substrate application followed by immediate mixing.
Kinetic parameters of the enzyme reaction are calculated at at least 5 different substrate concentrations and at least 5 different test compound concentrations.

Compound	IC50 [nM]
COc1cc2c(cc1OC)[C@@H]1C[C@H](N)[C@@H](C(=O)N3CCSC3)CN1CC2 (racemic) [Example 2, (RS,RS,RS)-(2-Amino-9,10-dimethoxy-1,3,4,6,7,11b-hexahydro-2H-pyrido[2,1-a]isoquinolin-3-yl)-thiazolidin-3-yl-methanone]	41
COc1cc2c(cc1OC)[C@@H]1C[C@H](N)[C@@H](N3CCC=CC3=O)CN1CC2 (racemic) [Example 12, (RS,RS,RS)-1-(2-Amino-9,10-dimethoxy-1,3,4,6,7,11b-hexahydro-2H-pyrido [2,1-a]isoquinolin-3-yl)-5,6-dihydro-1H-pyridin-2-one]	33
COc1cc2c(cc1OC)[C@@H]1C[C@H](N)[C@@H](N3CCCCS3(=O)=O)CN1CC2 [Example 16, (S,S,S)-3-(1,1-Dioxo-[1,2]thiazinan-2-yl)-9,10-dimethoxy-1,3,4,6,7,11b-hexahydro-2H-pyrido[2,1-a]isoquinolin-2-ylamine]	131
